Columns and labels:
[1] = test system: T. cruzi intracellular amastigotes in H9c2 cells; test: Rate-of-Kill (RoK) high-content imaging assay, amastigotes per cell (AM/CELL) and curve descriptors; assay type: cell-based, Trypanosoma cruzi; parameters: key to ME_24h / ME_48h / ME_72h: % reduction in parasite burden (cidal response); t50pct_MCC50 / t50pct_Cmax: unit not given here; conditions: for ME_24h: 24h; for ME_48h: 48h; for ME_72h: 72h; for AM/CELL NORM: sheet figure 4 A; for tlag_Cmax / t50pct_Cmax / t50%_Cmax: at Cmax; for ME_24h (%): maximum effect at 24 h; for ME_24h (%) / ME_48h (%) / ME_72h (%): RoK assay; for ME_48h (%): maximum effect at 48 h; for ME_72h (%): maximum effect at 72 h; for ME 24h (maximum effect at 24 hours, intracellular amastigotes): maximum percentage of parasite burden reduction reached by any concentration
Outline: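 H9c2 cardiomyocytes infected with T. cruzi trypomastigotes (MOI 8, 18 h), then compounds tested at 5 μM single shot or 11-point 1/3 dilution from 50 μM. DRAQ5-stained nuclei imaged over a time course. Amastigotes per cell normalised to infected cells at 4 h (0%) and non-infected cells (100%).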

[2] = test system: TcCYP51; conditions: formerly reported; cited from earlier work
[3] = test system: T. cruzi Tulahuen trypomastigotes; test: T. cruzi trypomastigote assay (Cell Titer-Glo viability, ATP luminescence); assay type: cell-based, Trypanosoma cruzi; conditions: for Trypomastigotes pIC50 48 hours: 48 hours incubation; for Trypomastigotes pIC50 48 hours / Trypomastigotes pIC50 72 hours: pIC50 = -log10 IC50 in molar units; for Trypomastigotes pIC50 72 hours: 72 hours incubation; for 72 pIC50 (trypomastigotes, raw data of Fig 1D): 72 hours, plotted values, censored values given without sign; for 48 pIC50 / 72 pIC50: trypomastigote assay; for 48 pIC50: 48 h; for 72 pIC50: 72 h
Outline: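 Tulahuen trypomastigotes from infected LLC-MK2 culture supernatants (days 5–8) plated at 5 × 10^4 per well in DMEM/2% FBS with compound at 5 μM single-shot final or in dose response. Viability by CellTiter-Glo ATP luminescence after 10 min at room temperature, normalised to no-cell (100%) and DMSO (0%) controls.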

Row | Structure (SMILES) | ME_24h ([1]; figure 5) | ME_48h ([1]; figure 5) | ME_72h ([1]; figure 5) | MCCE ([1]; RoK curve descriptor) [µM] | AM/CELL NORM ([1]; Time 4) | AM/CELL NORM ([1]; Time 24) | AM/CELL NORM ([1]; Time 48) | AM/CELL NORM ([1]; Time 72) | tlag_Cmax [1] [h] | t50pct_Cmax ([1]; figure 5) | tlag_Cmax ([1]; figure 5) | t50pct_MCC50 ([1]; at MCC50, figure 5) | tlag_MCC50 ([1]; at MCC50, figure 5) | MCCE ([1]; figure 5) | ME_24h (%) [1] [%] | ME_48h (%) [1] [%] | ME_72h (%) [1] [%] | ME 24h (maximum effect at 24 hours, intracellular amastigotes) [1] [%] | CYP51 pIC50 [2] | Trypomastigotes pIC50 48 hours [3] | also measured
1 | CS(=O)(=O)c1ccc(CC(=O)Nc2nc(-c3ccc(Cl)s3)cs2)cc1 [TCMDC-143224] | -50.7576 | -167.826 | 53.6478 | 1.9 | -3.952 | -61.4068 | -205.24 | -9.589 | 48.0 | 72 | 48 | 72 | 48 | 1.852 | -50.8 | -167.8 | 53.7 | -50.7576 | < 4 | < 4.3 | MCC50 ([1]; RoK curve descriptor): 16.7 µM; t50%_MCC50 ([1]; at MCC50): 72.0 h; tlag_MCC50 ([1]; at MCC50): 48.0 h; MCC50 ([1]; figure 5, in µM): 16.6667; Trypomastigotes pIC50 72 hours [3]: < 4.3; 72 pIC50 (trypomastigotes, raw data of Fig 1D) [3]: < 4.3; 48 pIC50 ([3]; figure 1A): < 4.3; 72 pIC50 ([3]; figure 1A): < 4.3; 72 pIC50 ([3]; figure 1B): < 4.3
2 | COc1ccc(C(C)(C)C)cc1S(=O)(=O)n1ccnc1 [TCMDC-143275] | -36.0217 | -75.3113 | 19.8776 | 0.2 | 7.308 | -56.5644 | -75.3113 | -31.1405 | 48.0 | 72 | 48 | 72 | 72 | 0.2058 | -36.0 | -75.3 | 19.9 | -36.0217 | 8.1 | < 4.3 | MCC50 ([1]; figure 5): 50 µM; Trypomastigotes pIC50 72 hours [3]: < 4.3; 72 pIC50 (trypomastigotes, raw data of Fig 1D) [3]: < 4.3; 48 pIC50 ([3]; figure 1A): < 4.3; 72 pIC50 ([3]; figure 1A): < 4.3; 72 pIC50 ([3]; figure 1B): < 4.3
3 | Cc1c(C(=O)NCCCCn2ccnc2)oc2c(C)cccc12 [TCMDC-143304] | -97.6451 | -43.6144 | 81.5916 | 0.6 | -4.678 | -97.6451 | -43.6144 | 60.7007 | 24.0 | 72 | 24 | 72 | 48 | 0.6173 | -97.7 | -43.6 | 81.6 | -97.6451 | 7 | < 4.3 | MCC50 ([1]; RoK curve descriptor): 1.9 µM; t50%_Cmax [1]: 72.0 h; t50%_MCC50 ([1]; at MCC50): 72.0 h; tlag_MCC50 ([1]; at MCC50): 48.0 h; MCC50 ([1]; figure 5, in µM): 1.852; Trypomastigotes pIC50 72 hours [3]: < 4.3; 72 pIC50 (trypomastigotes, raw data of Fig 1D) [3]: < 4.3; 48 pIC50 ([3]; figure 1A): < 4.3; 72 pIC50 ([3]; figure 1A): < 4.3; 72 pIC50 ([3]; figure 1B): < 4.3
4 | COc1ccc2c(Cl)c(C(=O)N3CCC3)sc2c1Cl [TCMDC-143262] | -33.6637 | -143.465 | -114.282 | 16.7 | 16.6129 | -33.6637 | -143.465 | -114.282 | 48.0 | 72 | 48 | 72 | 72 | 16.6667 | -33.7 | -143.5 | -114.3 | -33.6637 | < 4 | 6.2 | MCC50 ([1]; figure 5): 50 µM; Trypomastigotes pIC50 72 hours [3]: 6.4
5 | CC1CN(S(=O)(=O)c2ccc(NC(=O)c3cc(C4CC4)nc4c3cnn4C(C)C)cc2)CC(C)O1 (centres unmarked) [TCMDC-143200] | 2.192 | 1.8894 | 56.9286 | 1.9 | -14.9286 | 2.192 | -23.2452 | 15.376 | 4.0 | 72 | 4 | 72 | 24 | 1.852 | 2.2 | 1.9 | 56.9 | 2.192 | < 4 | 5.3 | MCC50 ([1]; RoK curve descriptor): 1.9 µM; t50%_MCC50 ([1]; at MCC50): 72.0 h; tlag_MCC50 ([1]; at MCC50): 24.0 h; MCC50 ([1]; figure 5, in µM): 1.852; Trypomastigotes pIC50 72 hours [3]: 4.8
6 | O=C(NCCc1cccnc1)c1ccc(-c2ccccc2F)o1 [TCMDC-143190] | -188.225 | -99.3488 | 47.7023 | 0.2 | 10.7478 | -116.413 | -106.707 | 59.1013 | 24.0 | 72 | 24 | 72 | 48 | 0.2058 | -188.2 | -99.4 | 47.7 | -116.413 | 7.2 | < 4.3 | MCC50 ([1]; RoK curve descriptor): 5.6 µM; t50%_Cmax [1]: 72.0 h; t50%_MCC50 ([1]; at MCC50): 72.0 h; tlag_MCC50 ([1]; at MCC50): 24.0 h; MCC50 ([1]; figure 5, in µM): 27.7778; Trypomastigotes pIC50 72 hours [3]: < 4.3; 72 pIC50 (trypomastigotes, raw data of Fig 1D) [3]: < 4.3; 48 pIC50 ([3]; figure 1A): < 4.3; 72 pIC50 ([3]; figure 1A): < 4.3; 72 pIC50 ([3]; figure 1B): < 4.3
7 | O=S(=O)(c1cccc(CSc2nnc(-c3ccc4c(c3)OCO4)o2)c1)N1CCOCC1 [TCMDC-143197] | -16.5303 | 13.4442 | 33.635 | 0.07 | -18.4264 | -16.5303 | -6.567 | 29.0194 | 4.0 | 72 | 4 | 72 | 72 | 0.06859 | -16.5 | 13.4 | 33.6 | -16.5303 | 4.9 | < 4.3 | MCC50 ([1]; figure 5): 50 µM; Trypomastigotes pIC50 72 hours [3]: < 4.3; 72 pIC50 (trypomastigotes, raw data of Fig 1D) [3]: < 4.3; 48 pIC50 ([3]; figure 1A): < 4.3; 72 pIC50 ([3]; figure 1A): < 4.3; 72 pIC50 ([3]; figure 1B): < 4.3
8 | COc1ccc(S(=O)(=O)NC(C)C)cc1Nc1ncc(-c2cccc(F)c2)cn1 [TCMDC-143248] | -143.559 | -20.0816 | 54.2238 | 0.6 | -6.932 | -311.598 | -64.9455 | 9.4251 | 24.0 | 72 | 24 | 72 | 48 | 0.6173 | -143.6 | -20.1 | 54.2 | -47.9652 | < 4 | < 4.3 | MCC50 ([1]; RoK curve descriptor): 50.0 µM; t50%_Cmax [1]: 72.0 h; t50%_MCC50 ([1]; at MCC50): 72.0 h; tlag_MCC50 ([1]; at MCC50): 24.0 h; MCC50 ([1]; figure 5): 50 µM; Trypomastigotes pIC50 72 hours [3]: < 4.3; 72 pIC50 (trypomastigotes, raw data of Fig 1D) [3]: < 4.3; 48 pIC50 ([3]; figure 1A): < 4.3; 72 pIC50 ([3]; figure 1A): < 4.3; 72 pIC50 ([3]; figure 1B): < 4.3

Source: article PMC8318231, “Rate-of-Kill (RoK) assays to triage large compound sets for Chagas disease drug discovery: Application to GSK Chagas Box” (PLoS Neglected Tropical Diseases, 2021)
